Assays:
Experiment in all cases: relative viability (nuclei count vs DMSO), 5 days (fraction); higher = more cells survive
[1] = compound: CC1CC(=O)N(C2=CN=C(N=C2N1C3CCCC3)NC4=C(C=C(C=C4)C(=O)NC5CCN(CC5)C)OC)C [NPK76-II-72-1] + C[C@]1(O)C[C@@H](c2nc(-c3ccc4ccc(-c5ccccc5)nc4c3)c3c(N)nccn32)C1 [Linsitinib] (partner 1 µM)
Procedure, shortened: (§1)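 Values are medians from duplicate plates. Each reflects relative viability, defined as the nuclei count of treated wells over that of vehicle wells. Lung cancer cell lines in 1536-well plates were pin-tool dosed one day after seeding with one drug alone or with a fixed anchor-drug dose plus five library-drug doses (not always all listed) in √10 steps, then fixed, stained and imaged at 4× after 5 days.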

[2] = compound: CC1CC(=O)N(C2=CN=C(N=C2N1C3CCCC3)NC4=C(C=C(C=C4)C(=O)NC5CCN(CC5)C)OC)C [NPK76-II-72-1] + Cc1cc(Nc2cc(N3CCN(C)CC3)nc(Sc3ccc(NC(=O)C4CC4)cc3)n2)n[nH]1 [Tozasertib] (partner 0.1 µM)
Procedure, shortened: as §1

BI-2536 + Foretinib = compound: CC[C@@H]1C(=O)N(C)c2cnc(Nc3ccc(C(=O)NC4CCN(C)CC4)cc3OC)nc2N1C1CCCC1 [BI-2536] + COc1cc2c(Oc3ccc(NC(=O)C4(C(=O)Nc5ccc(F)cc5)CC4)cc3F)ccnc2cc1OCCCN1CCOCC1 [Foretinib] (partner 0.25 µM)
Procedure, shortened: as §1

BI-2536 + Alpelisib = compound: CC[C@@H]1C(=O)N(C)c2cnc(Nc3ccc(C(=O)NC4CCN(C)CC4)cc3OC)nc2N1C1CCCC1 [BI-2536] + Cc1nc(NC(=O)N2CCC[C@H]2C(N)=O)sc1-c1ccnc(C(C)(C)C(F)(F)F)c1 [Alpelisib] (partner 2 µM)
Procedure, shortened: as §1

**Q.** What does the source list for UMC-11?
**A.** relative viability ([1]; first compound 0.01 µM): 1; relative viability ([1]; first compound 0.03162 µM): 1.08; relative viability ([1]; first compound 0.1 µM): 1; relative viability ([1]; first compound 0.3162 µM): 0.927; relative viability ([1]; first compound 1 µM): 0.976; relative viability ([2]; first compound 0.01 µM): 0.197; relative viability ([2]; first compound 0.03162 µM): 0.186; relative viability ([2]; first compound 0.1 µM): 0.197; relative viability ([2]; first compound 1 µM): 0.205; relative viability (BI-2536 + Foretinib; first compound 0.01 µM): 0.927; relative viability (BI-2536 + Foretinib; first compound 0.03162 µM): 0.661; relative viability (BI-2536 + Foretinib; first compound 0.1 µM): 0.174; relative viability (BI-2536 + Foretinib; first compound 0.3162 µM): 0.19; relative viability (BI-2536 + Foretinib; first compound 1 µM): 0.191; relative viability (BI-2536 + Alpelisib; first compound 0.01 µM): 0.978; relative viability (BI-2536 + Alpelisib; first compound 0.03162 µM): 0.733; relative viability (BI-2536 + Alpelisib; first compound 0.1 µM): 0.312; relative viability (BI-2536 + Alpelisib; first compound 0.3162 µM): 0.152; relative viability (BI-2536 + Alpelisib; first compound 1 µM): 0.126
